Measurements from PubChem BioAssay (NCI).
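These data come from cells grown in 96-well plates and exposed to compound for 48 hours at five concentrations. TGI: concentration producing complete growth inhibition.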

Key:
Assay in all cases: DTP human tumour cell line panel, 48 h
786-0 renal = tested on: 786-0 renal
KM12 colon = tested on: KM12 colon
SK-MEL-2 melanoma = tested on: SK-MEL-2 melanoma
EKVX NSCLC = tested on: EKVX NSCLC
ACHN renal = tested on: ACHN renal
SNB-78 CNS = tested on: SNB-78 CNS
OVCAR-4 ovarian = tested on: OVCAR-4 ovarian
OVCAR-5 ovarian = tested on: OVCAR-5 ovarian
DMS 273 small cell lung = tested on: DMS 273 small cell lung
M14 melanoma = tested on: M14 melanoma
LXFL 529 NSCLC = tested on: LXFL 529 NSCLC
UO-31 renal = tested on: UO-31 renal
SF-268 CNS = tested on: SF-268 CNS
RPMI-8226 leukemia = tested on: RPMI-8226 leukemia
HOP-62 NSCLC = tested on: HOP-62 NSCLC
COLO 205 colon = tested on: COLO 205 colon
A549 NSCLC = tested on: A549 NSCLC
U251 CNS = tested on: U251 CNS
A498 renal = tested on: A498 renal
HOP-18 NSCLC = tested on: HOP-18 NSCLC
HOP-92 NSCLC = tested on: HOP-92 NSCLC
SF-295 CNS = tested on: SF-295 CNS
TK-10 renal = tested on: TK-10 renal
SR leukemia = tested on: SR leukemia
NCI-H226 lung = tested on: NCI-H226 lung
KM20L2 colon = tested on: KM20L2 colon
SK-MEL-28 melanoma = tested on: SK-MEL-28 melanoma
SNB-75 CNS = tested on: SNB-75 CNS
RXF-631 renal = tested on: RXF-631 renal
DMS 114 small cell lung = tested on: DMS 114 small cell lung
DLD-1 colon = tested on: DLD-1 colon
MOLT-4 leukemia = tested on: MOLT-4 leukemia
NCI-H460 lung = tested on: NCI-H460 lung
UACC-62 melanoma = tested on: UACC-62 melanoma
SN12C renal = tested on: SN12C renal
HCT-15 colon = tested on: HCT-15 colon
MALME-3M melanoma = tested on: MALME-3M melanoma
HCT-116 colon = tested on: HCT-116 colon
HL-60(TB) leukemia = tested on: HL-60(TB) leukemia
SK-OV-3 ovarian = tested on: SK-OV-3 ovarian
HT29 colon = tested on: HT29 colon
NCI-H522 lung = tested on: NCI-H522 lung
SW-620 colon = tested on: SW-620 colon
UACC-257 melanoma = tested on: UACC-257 melanoma
M19-MEL melanoma = tested on: M19-MEL melanoma
XF 498 CNS = tested on: XF 498 CNS
K-562 leukemia = tested on: K-562 leukemia
SNB-19 CNS = tested on: SNB-19 CNS
SF-539 CNS = tested on: SF-539 CNS
CAKI-1 renal = tested on: CAKI-1 renal
LOX IMVI melanoma = tested on: LOX IMVI melanoma
SK-MEL-5 melanoma = tested on: SK-MEL-5 melanoma
OVCAR-3 ovarian = tested on: OVCAR-3 ovarian
RXF 393 renal = tested on: RXF 393 renal
CCRF-CEM leukemia = tested on: CCRF-CEM leukemia
OVCAR-8 ovarian = tested on: OVCAR-8 ovarian
IGROV1 ovarian = tested on: IGROV1 ovarian
NCI-H23 lung = tested on: NCI-H23 lung
HCC-2998 colon = tested on: HCC-2998 colon

CN1CCC(=O)/C(=C/c2ccccc2)C1
TGI (786-0 renal): 25.2 µM | TGI (KM12 colon): 5.28 µM | TGI (SK-MEL-2 melanoma): 42.1 µM | TGI (EKVX NSCLC): 40.5 µM | TGI (ACHN renal): 32.4 µM | TGI (SNB-78 CNS): 57.6 µM | TGI (OVCAR-4 ovarian): 32.5 µM | TGI (OVCAR-5 ovarian): 29.3 µM | TGI (DMS 273 small cell lung): 14.9 µM | TGI (M14 melanoma): 26.7 µM | TGI (LXFL 529 NSCLC): 17.6 µM | TGI (UO-31 renal): 32.6 µM | TGI (SF-268 CNS): 43.2 µM | TGI (RPMI-8226 leukemia): 15.7 µM | TGI (HOP-62 NSCLC): 40.2 µM | TGI (COLO 205 colon): 28.3 µM | TGI (A549 NSCLC): 34.3 µM | TGI (U251 CNS): 19.1 µM | TGI (A498 renal): 33 µM | TGI (HOP-18 NSCLC): 32.2 µM | TGI (HOP-92 NSCLC): 31.9 µM | TGI (SF-295 CNS): 29.3 µM | TGI (TK-10 renal): 29.6 µM | TGI (SR leukemia): 61.3 µM | TGI (NCI-H226 lung): 32.2 µM | TGI (KM20L2 colon): 26.6 µM | TGI (SK-MEL-28 melanoma): 32.7 µM | TGI (SNB-75 CNS): 20.8 µM | TGI (RXF-631 renal): 33.9 µM | TGI (DMS 114 small cell lung): 24 µM | TGI (DLD-1 colon): 12.5 µM | TGI (MOLT-4 leukemia): 34.3 µM | TGI (NCI-H460 lung): 41.8 µM | TGI (UACC-62 melanoma): 36.9 µM | TGI (SN12C renal): 28.4 µM | TGI (HCT-15 colon): > 50 µM | TGI (MALME-3M melanoma): 35.4 µM | TGI (HCT-116 colon): 3.25 µM | TGI (HL-60(TB) leukemia): 41.5 µM | TGI (SK-OV-3 ovarian): 35.3 µM | TGI (HT29 colon): 11 µM | TGI (NCI-H522 lung): 33.6 µM | TGI (SW-620 colon): 14.1 µM | TGI (UACC-257 melanoma): 28.2 µM | TGI (M19-MEL melanoma): 18.4 µM | TGI (XF 498 CNS): 32.9 µM | TGI (K-562 leukemia): > 28.9 µM | TGI (SNB-19 CNS): 30.8 µM | TGI (SF-539 CNS): 33.3 µM | TGI (CAKI-1 renal): 33.9 µM | TGI (LOX IMVI melanoma): 14.6 µM | TGI (SK-MEL-5 melanoma): 33.4 µM | TGI (OVCAR-3 ovarian): 26.2 µM | TGI (RXF 393 renal): 26.8 µM | TGI (CCRF-CEM leukemia): 50.7 µM | TGI (OVCAR-8 ovarian): 51.7 µM | TGI (IGROV1 ovarian): 33.5 µM | TGI (NCI-H23 lung): 36.1 µM | TGI (HCC-2998 colon): 23.6 µM
